{
  "source": "patent US20240115496A1",
  "about": "“A COMPOUND DRY POWDER INHALANT AND USE THEREOF” (TIANJIN UNIVERSITY OF TRADITIONAL CHINESE MEDICINE, priority 2021, published 2024)",
  "key": {"[1]": {"assay": "Particle size distribution test, laser particle size analyzer, dry dispersion", "assay_type": "physicochemical", "method": "The particle size distribution of DPI dry powder was measured by dry dispersion method using laser particle size analyzer, and Dv10, Dv50, Dv90, VMD (Volume median diameter) and SMD (Sauter mean diameter) were determined, respectively."}, "[2]": {"system": "rats having Bleo-induced pulmonary fibrosis", "assay": "Total protein in bronchoalveolar lavage fluid (BALF), colorimetric", "assay_type": "in vivo, rat", "conditions": "Bleo rats after 28 days of treatment, n = 6; Bleo group 17.04, normal 7.86", "method": "(§1) 48 SPF healthy SD male rats (weight of 180-220 g) were randomly divided into 8 groups, 6 rats for each group: (1) normal group (control group): normal rearing in the animal center; (2) sham group: this group was given the same dose of air by pulmonary administration; (3) Bleo model group: 100 μL of Bleo solution with a concentration of 12.5 mg/mL was administered through the tracheal intubation, and the rats were rotated for 5 min after drug administration for use, referred to as the Bleo group or the model group in the present application; (4) Bleo+BA-DPI group: the same modeling method as the Bleo model group was used, and BA-DPI was administered through the tracheal intubation via DP-4 rat dry powder lung drug delivery device (manufacturer: Beijing YSKD Biotechnology Co.) at a dose of 9 mg/kg, 3 mg per day for 28 days; (5) Bleo+AH-DPI group (same method as 4); (6) Bleo+BA/AH-DPI group (same method as 4); (7) Bleo+tail intravenous injection group: the formulation solution was administered by tail intravenous injection at a concentration of 3 mg/ml, 9 mg/kg, for a total of 28 days, starting from the second day after the modeling; (8) Bleo+pirfenidone group: 2 ml per day at a concentration of 11.6 mg/ml was administered by gavage starting from the second day after successful modeling for 28 days. […]"}, "[3]": {"system": "rats having Bleo-induced pulmonary fibrosis", "assay": "Pulmonary function index assay (EMKA pulmonary function detector)", "assay_type": "in vivo, rat", "conditions": "day 28, DPI intratracheal or tail i.v. 9 mg/kg, pirfenidone gavage, daily 28 days", "method": "48 SPF healthy SD male rats (weight of 180-220 g) were randomly divided into 8 groups, 6 rats for each group: (1) normal group (control group): normal rearing in the animal center; (2) sham group: this group was given the same dose of air by pulmonary administration; (3) Bleo model group: 100 μL of Bleo solution with a concentration of 12.5 mg/mL was administered through the tracheal intubation, and the rats were rotated for 5 min after drug administration for use, referred to as the Bleo group or the model group in the present application; (4) Bleo+BA-DPI group: the same modeling method as the Bleo model group was used, and BA-DPI was administered through the tracheal intubation via DP-4 rat dry powder lung drug delivery device (manufacturer: Beijing YSKD Biotechnology Co.) at a dose of 9 mg/kg, 3 mg per day for 28 days; (5) Bleo+AH-DPI group (same method as 4); (6) Bleo+BA/AH-DPI group (same method as 4); (7) Bleo+tail intravenous injection group: the formulation solution was administered by tail intravenous injection at a concentration of 3 mg/ml, 9 mg/kg, for a total of 28 days, starting from the second day after the modeling; (8) Bleo+pirfenidone group: 2 ml per day at a concentration of 11.6 mg/ml was administered by gavage starting from the second day after successful modeling for 28 days.\nLung DPI dry powder administration operation: DPI powder was weighed precisely and placed in the storage room of the drug delivery device, the DP4 dry powder delivery device was installed, connected to the syringe with 1.5-2 ml of air, the rat was laid on the tracheal intubation platform after anesthesia, the rat laryngoscope was used to expose the tracheal opening, when the tracheal opening was open, the nozzle of the drug delivery device was immediately inserted through the tracheal opening to the bronchial fork, and the air was immediately pushed into the drug delivery device to push DPI fine powder into the rat's lung. The rat in sham group was pushed with 1.5-2 ml of air (not including the drug) as described above.\nVarious respiratory indices, including inspiratory duration (Ti), expiratory duration (Te), maximal inspiratory flow (PIF), maximal expiratory flow (PEF), tidal volume (TV), relaxation time (RT), and expiratory volume (EV), in freely moving rats were measured by EMKA pulmonary function detector at the completion of modeling on day 28."}, "[4]": {"system": "inflammatory factors IL-4, IL-6, IL-8, and IL-1β in BALF", "assay": "Inflammatory factors in BALF by ELISA", "assay_type": "in vivo, rat", "conditions": "Bleo rats after 28 days, compared with Bleo group", "method": "as §1\nIn order to verity whether BA/AH-DPI can regulate the inflammatory process by modulating the secretion of cytokines, the application also measured the concentrations of inflammatory factors IL-4, IL-6, IL-8, and IL-1β in BALF to determine the protective and therapeutic effects of BA/AH-DPI in the pathogenesis of Bleo-induced idiopathic pulmonary fibrosis.\nThe above BALF supernatant was measured by enzyme-linked immunosorbent assay (ELISA) to detect the concentration levels of inflammatory factors IL-4, IL-6, IL-8, IL-1β, as well as IFN-γ and TGF-β1. […]"}, "[5]": {"system": "rats having Bleo-induced pulmonary fibrosis", "assay": "HE staining of rat lung tissue", "assay_type": "in vivo", "conditions": "Bleo rats after 28 days, compared with Bleo model group", "method": "as §1"}, "[6]": {"system": "SOD, MDA, LDH in rat lung tissue", "assay": "Oxidative stress indicators (SOD, MDA, LDH) in lung tissue homogenates", "assay_type": "in vivo", "conditions": "Bleo rats after 28 days, compared with Bleo group", "method": "as §1\nOxidative stress played an important role in the process of Bleo-induced pulmonary fibrosis. […] Therefore, in the application, SOD was measured in conjunction with MDA in order to observe the role in pulmonary fibrosis. […]"}, "[7]": {"system": "rats having Bleo-induced pulmonary fibrosis", "assay": "Determination of lung factor in rats", "assay_type": "in vivo, rat", "conditions": "Bleo rats after 28 days of treatment, n = 6; Bleo group 9.45, normal 4.09", "method": "as §1"}, "MPO": {"system": "MPO", "assay": "Myeloperoxidase (MPO) level in serum", "assay_type": "in vivo, rat", "conditions": "Bleo rats after 28 days, compared with Bleo group", "method": "as §1"}, "[8]": {"system": "rats having Bleo-induced pulmonary fibrosis", "assay": "Hydroxyproline (Hyp) in lung tissue homogenates by ELISA", "assay_type": "in vivo, rat", "conditions": "Bleo rats after 28 days of treatment; Bleo group 118.33, normal 76.43", "method": "as §1"}, "[9]": {"system": "rats having Bleo-induced pulmonary fibrosis", "assay": "Body weight changes in rats", "assay_type": "in vivo, rat", "conditions": "days 1-28, compared with Bleo group", "method": "as §1"}},
  "data": [
    {"smiles": "CC(C)C[C@H](N)C(=O)O", "note": "[L-leu, L-leucine]", "values": [
      {"measurement": "D10", "setting": "[1]", "value": 9.39, "unit": "μm"},
      {"measurement": "D50", "setting": "[1]", "value": 50.97, "unit": "μm"},
      {"measurement": "D90", "setting": "[1]", "value": 84.70, "unit": "μm"},
      {"measurement": "SMD (Sauter mean diameter)", "setting": "[1]", "value": 16.64, "unit": "μm"},
      {"measurement": "VMD (Volume median diameter)", "setting": "[1]", "value": 49.54, "unit": "μm"},
      {"measurement": "<3 μm", "setting": "[1]; fraction of particles", "value": 3.80, "unit": "%"},
      {"measurement": "<5 μm", "setting": "[1]; fraction of particles", "value": 6.08, "unit": "%"}
    ]},
    {"smiles": "Cc1ccc(=O)n(-c2ccccc2)c1", "note": "[pirfenidone, Pirfenidone]", "values": [
      {"measurement": "Total protein concentration in BALF", "setting": "[2]", "value": "10.59 ± 1.47", "unit": "mg/mL"},
      {"measurement": "EV (expiratory volume)", "setting": "[3]", "value": "1.23 ± 0.30", "unit": "mL"},
      {"measurement": "PEF (maximal expiratory flow)", "setting": "[3]", "value": "10.76 ± 5.93", "unit": "mL/s"},
      {"measurement": "PIF (maximal inspiratory flow)", "setting": "[3]", "value": "12.52 ± 4.68", "unit": "mL/s"},
      {"measurement": "RT (relaxation time)", "setting": "[3]", "value": "158.82 ± 63.19", "unit": "ms"},
      {"measurement": "TV (tidal volume)", "setting": "[3]", "value": "1.22 ± 0.30", "unit": "mL"},
      {"measurement": "Te (expiratory duration)", "setting": "[3]", "value": "265.48 ± 99.45", "unit": "ms"},
      {"measurement": "Ti (inspiratory duration)", "setting": "[3]", "value": "180.56 ± 49.34", "unit": "ms"},
      {"measurement": "IL-1β level in BALF", "setting": "[4]", "value": "significantly lower"},
      {"measurement": "IL-4 level in BALF", "setting": "[4]", "value": "significantly lower"},
      {"measurement": "IL-8 level in BALF", "setting": "[4]", "value": "significantly lower"},
      {"measurement": "Histopathology of lung tissue (HE staining)", "setting": "[5]", "value": "less fibrotic features and inflammatory infiltration"},
      {"measurement": "LDH content in lung tissue", "setting": "[6]", "value": "significantly decreased"},
      {"measurement": "MDA level in lung tissue", "setting": "[6]", "value": "significantly decreased"},
      {"measurement": "SOD antioxidant index in lung tissue", "setting": "[6]", "value": "significantly increased"},
      {"measurement": "Lung factor", "setting": "[7]", "value": "6.15 ± 0.84"},
      {"measurement": "MPO activity in serum", "setting": "MPO", "value": "significantly inhibited MPO activity"},
      {"measurement": "Hyp content in lung tissue", "setting": "[8]", "value": 83.40, "unit": "pg/mL"},
      {"measurement": "Body weight of rats", "setting": "[9]", "value": "significantly different from that in the Bleo group from day 14"}
    ]}
  ]
}
